For this assay, the target named is T1, conventional kinesin (Homo sapiens, UniProt P33176).
T1 sequence (P33176 1-963): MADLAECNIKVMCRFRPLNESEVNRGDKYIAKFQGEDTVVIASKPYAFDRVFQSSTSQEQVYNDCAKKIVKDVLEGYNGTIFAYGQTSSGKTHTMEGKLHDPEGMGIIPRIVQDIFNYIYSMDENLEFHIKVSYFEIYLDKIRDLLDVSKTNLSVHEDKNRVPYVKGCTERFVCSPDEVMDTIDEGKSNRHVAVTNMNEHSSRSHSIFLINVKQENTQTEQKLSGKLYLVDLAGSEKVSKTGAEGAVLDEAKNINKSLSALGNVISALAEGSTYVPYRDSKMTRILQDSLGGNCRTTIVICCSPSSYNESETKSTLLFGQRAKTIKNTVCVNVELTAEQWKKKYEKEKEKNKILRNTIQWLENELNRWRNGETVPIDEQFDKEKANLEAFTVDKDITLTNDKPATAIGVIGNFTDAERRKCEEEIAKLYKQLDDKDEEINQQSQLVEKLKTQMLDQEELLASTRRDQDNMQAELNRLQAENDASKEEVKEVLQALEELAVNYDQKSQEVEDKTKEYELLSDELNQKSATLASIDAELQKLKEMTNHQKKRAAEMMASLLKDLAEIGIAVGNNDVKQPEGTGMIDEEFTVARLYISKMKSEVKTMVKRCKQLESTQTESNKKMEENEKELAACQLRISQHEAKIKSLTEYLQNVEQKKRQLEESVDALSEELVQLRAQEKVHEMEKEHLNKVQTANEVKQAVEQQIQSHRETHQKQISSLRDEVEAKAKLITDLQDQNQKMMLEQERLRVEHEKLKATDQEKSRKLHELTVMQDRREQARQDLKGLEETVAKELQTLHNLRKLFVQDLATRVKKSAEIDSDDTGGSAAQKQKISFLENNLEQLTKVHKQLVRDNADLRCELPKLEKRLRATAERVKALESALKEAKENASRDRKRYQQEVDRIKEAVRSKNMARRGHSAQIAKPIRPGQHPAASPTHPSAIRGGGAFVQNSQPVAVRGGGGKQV
In words: microtubule gliding driven by conventional kinesin. In kind it is biochemical. To be noted: 200 μM. As for the experimental part:
FIG. 26. […] Conventional kinesin motility was not inhibited in the same assay. A. Model for spindle bipolarity. Plus-end directed motors, such as Eg5 are thought to be involved in the separation of the centrosomes and the establishment of a symmetric spindle axis. B. Inhibition of the kinesin Eg5 results in monastrol spindles. Microtubules, green; chromosomes, blue. Eg5 is depicted as homotetramer (9). C. […] After imaging Eg5 driven microtubule gliding in the presence of monastrol (200 μM), the same assay chamber was depleted of compound and the microtubule gliding recorded (Washout). […] D. Chemical structures of monastrol and DHP2.
Eg5 is a member of the kinesin superfamily, which includes over 100 homologous proteins involved in organelle transport, membrane organization, and assembly and maintenance of mitotic spindles (Vale et al., Annu. Rev. Cell. Dev. Biol. 13:745, 1997). To test whether monastrol affects other motor proteins, we first assayed its ability to inhibit microtubule gliding driven by conventional kinesin in vitro. The N-terminal motor domain of conventional kinesin shares 33% sequence identity with the Eg5 motor domain (Kapoor et al., Proc. Natl. Acad. Sci. USA, 1999). […] We next investigated whether monastrol disturbs the distribution of lysosomes or the Golgi apparatus in vivo. […]

“Also recorded” adds a separate entry of the source.

The results in this text go back to patent publication US20080311589A1, “METHOD OF HIGH-THROUGHPUT SCREENING OF MOLECULES AND COMPOUNDS FOR THEIR EFFECTS ON BIOLOGICAL AND CHEMICAL PROCESSES” (priority 1999, published 2008).

Take monastrol: the “inhibition of microtubule gliding driven by conventional kinesin” value is “no inhibition; also recorded: does not inhibit”.
